Experimental data taken from US20240139220A1, “TREATMENT OF HPV INFECTION” (priority 2022, published 2024).
Read-outs that look alike come from different tables or passages of the source.

Tests used:
HeLa cells = test: In vitro cytotoxicity, XTT, five days
Protocol: (§1) Three compounds (Compound I, Compound II and Compound III) were solubilized at 40 mM in DMSO and stored at −20° C. The test compounds were evaluated using a high test concentration of 50 μM. Serial half-logarithmic dilutions were performed for the in vitro cytotoxicity assays.
(§2) Cells listed in Table 70 were enumerated by Trypan Blue Dye exclusion method and seeded in the interior wells of a 96 well flat bottom microtiter plate at 100 μL/well. Proliferating cells were incubated overnight at 37° C./5% CO2 to allow the cells to adhere to the plates at approximately 70% confluency. Tissue culture medium was removed and replaced with 100 μL/well of fresh medium. One-hundred microliters (100 μL) of each compound at six concentrations was transferred to the 96-well plate containing the cells in triplicate. Table 70 lists the cell line, type of cell, source of cell stock, base tissue culture medium supplemented with 10% fetal bovine serum, 2 mM L-glutamine, 100 U/mL penicillin and 100 μg/mL streptomycin, and microtiter plate seeding density.
(§3) Following incubation at 37′C in a 5% CO2 incubator for five days, the test plates were stained with the tetrazolium dye XTT (2,3-bis(2-methoxy-4-nitro-5-sulfopheny1)-5-[(phenylamino)carbonyl]-2H-tetrazolium hydroxide). XTT-tetrazolium was metabolized by the mitochondrial enzymes of metabolically active cells to a soluble formazan product. XTT solution was prepared daily as a stock of 1 mg/ml in RPM11640. Phenazine methosulfate (PMS) solution was prepared at 0.15 mg/ml in PBS and stored in the dark at −20° C. XTT/PMS stock was prepared immediately before use by adding 40 μL of PMS per ml of XTT solution. Fifty microliters of XTT/PMS were added to each well of the plate and the plate was reincubated for 4 hours at 37° C. Plates were sealed with adhesive plate sealers and shaken gently or inverted several times to mix the soluble formazan product and the plate was read spectrophotometrically at 450/650 nm with a Molecular Devices Vmax plate reader.
(§4) Microsoft Excel 2010 was used to analyze and graph the raw data. CCso (50% reduction in cell viability) values are tabulated and provided. Raw data for cytotoxicity with a graphic representation of the data are provided in a printout summarizing the compound effect on cell viability.
(§5) Compounds I, II, and III were evaluated for cytotoxicity to proliferating Hs27, HeLa, C33A and HEK293 cells by measuring cell viability using XTI tetrazolium dye following five days in culture (Table 71).

Hs27 cells = test: In vitro cytotoxicity, XTT, five days
Protocol: as §1, §2, §3, §4, §5

C33A cells = test: In vitro cytotoxicity, XTT, five days; settings: read-out: C33A CC50
Protocol: as §1, §2, §3, §4, §5

HEK293 cells = tested on: HEK293 cells
Protocol: as §1
Cells listed in Table 70 were enumerated by Trypan Blue Dye exclusion method and seeded in the interior wells of a 96 well flat bottom microtiter plate at 100 μL/well. Proliferating cells were incubated overnight at 37° C./5% CO2 to allow the cells to adhere to the plates at approximately 70% confluency. Tissue culture medium was removed and replaced with 100 μL/well of fresh medium. […]
Following incubation at 37′C in a 5% CO2 incubator for five days, the test plates were stained with the tetrazolium dye XTT (2,3-bis(2-methoxy-4-nitro-5-sulfopheny1)-5-[(phenylamino)carbonyl]-2H-tetrazolium hydroxide). […] Plates were sealed with adhesive plate sealers and shaken gently or inverted several times to mix the soluble formazan product and the plate was read spectrophotometrically at 450/650 nm with a Molecular Devices Vmax plate reader. […]
as §5

[1] = In vitro tissue permeation test in human cervical tissue; assay type: in vitro ADME; settings: 0.1% gel, FIG. 116
Source text: (§6) FIG. 116 is an in vitro tissue permeation test in vaginal tissue comparing Compound II to ABI-1968. […] Bars B and C show the tissue penetration of a 0.1% Compound II gel in […]. […] This may be a contributing factor to the performance of ABI-1968 in clinical studies. […] This is described in Example 41.

[2] = Ex vivo permeation and penetration across porcine vaginal tissue (Franz diffusion cells, IVPT); assay type: in vitro ADME; settings: porcine vaginal tissue, FIG. 116; Compound II 0.1% gel, ABI-1968 1% and 3% formulations
Source text: as §6
Freshly harvested porcine vaginal tissue was procured from local slaughterhouse in an ice box. The vaginal tissue was cut open to expose the mucosal surface and tissue was cleaned by gentle flow of PBS pH 7.4. The porcine vaginal tissue was cut into circular portions (approximately 2 cm^2) with help of a […] punch.
The circular portion of tissue was sandwiched between two chambers of a Franz diffusion cell with an active diffusion area of 1 cm^2, and the mucosal layer was exposed to the donor chambers. The resistance across porcine vaginal tissue was measured using a wave form generator to ensure the integrity of the tissue segment used for the permeation study. Porcine vaginal tissue with resistance of ≥3 KΩ.cm^2 was used for study. The receiver chamber was filled with 8 ml of 5% solutol PBS 7.4 pH, which was stirred at 600 rpm with a 3 mm magnetic stir bar and the temperature was maintained at 37° C. with a circulating water bath.
The ˜200 mg of gel was filled into tared 1 mL syringe and gel was dispensed to donor chamber. The gel was spread on to mucosal surface with pre weighed applicator. After loading and spreading of the gel onto surface of mucosal surface, the weight of 1 mL syringe and applicator was noted to determine the exact amount of gel loaded into donor chamber.
Time course (2 h, 4 h and 8 h) porcine vaginal permeation studies were performed. After loading gel, 500 μL samples were withdrawn from the receiver compartment at different time intervals and each time an equal volume of fresh receiver media was used to replace withdrawn samples. The sample withdrawn at each time interval were stored immediately in −20° C. until analysis. After 2, 4 and 8 h, the formulation was removed from the donor chamber with help of syringe and cleaned with cotton swab. The tissue was removed and washed gently with wash solution (50% methanol in water) 5 times and alternatively cleaning with cotton swab.
An 8 mm punch of active diffusion area of washed porcine vaginal tissue was removed, weighed and transferred into a tube. This tube was immediately placed into dry ice for ˜15 min. After specified time, tissue was removed and placed in precooled dish. The tissue was minced into smaller pieces on a dish with a precooled surgical blade. The minced tissue was transferred to sample tubes and dish was rinsed with 1 ml of 5% solutol in PBS 7.4 pH and transferred to same tissue sample tube. These tubes were stored in −70° C. until analysis.
The samples stored at −20° C. was removed and thawed at room temperature for 30 min. The drug from receptor fluid was centrifuged at 13000 rpm for 5 min and to 200 μL of supernatant equal volume of extraction solvent was added. These samples were centrifuged at 13000 rpm for 5 min and supernatant was transferred into vials for analysis.
The minced tissue samples stored at −70° C. were removed and thawed at room temperature for ˜90 min. The samples were kept for shaking at room temperature for 4 h in BioShaker. After 4 h, samples were centrifuged at 13000 rpm for 5 min. To 100 μL of supernatant, 400 μL of extraction solvent was added and vortexed for 2 min. […]

[3] = Hygroscicity by Dynamic Vapor Sorption (DVS) at 25° C.; assay type: physicochemical
Protocol: Hygroscopicity was investigated by DVS at 25° C., using the following method: […]

Compound	CC50 (HeLa cells; read-out: HeLa CC50, HeLa cells, XTT, five days)	CC50 (Hs27 cells; read-out: Hs27 CC50, Hs27 cells, XTT, five days)	CC50 (C33A cells)	CC50 (HeLa cells)	CC50 (Hs27 cells)	CC50 (HEK293 cells)	Tissue penetration [1]	Tissue penetration [2]	XRPD pattern after humidity cycle ([3]; cycle of 40-0-95-0-45% relative humidity)	Water content retained ([3]; exposed to a cycle of 40-0-95-0-45% relative humidity)
CCOC(=O)C(C)NP(=O)(COCCn1cnc2c(OC)nc(N)nc21)OCc1ccccc1 (mixture of isomers) [ABl2280]	18.6 µM	22.9 µM	0.28 µM	–	–	–	–	–	–	–
CCOC(=O)C(C)NP(=O)(COCCn1cnc2c(OC)nc(N)nc21)OCc1ccccc1 (single isomer, unassigned; isomer 1) [ABl2280 Isomer 1]	–	–	0.2 µM	15.1 µM	23.2 µM	< 0.16 µM	–	–	–	–
CCOC(=O)C(C)NP(=O)(COCCn1cnc2c(OC)nc(N)nc21)OCc1ccccc1 (single isomer, unassigned; isomer 2) [ABl2280 Isomer 2]	–	–	< 0.16 µM	16.9 µM	7.62 µM	< 0.16 µM	–	–	–	–
CCOC(=O)[C@H](C)N[P@@](=O)(COCCn1cnc2c(OC)nc(N)nc21)OCc1ccccc1.O=C(O)/C=C/C(=O)O [Compound II]	–	–	–	–	–	–	high tissue penetration	high tissue penetration	does not change	about 0.25%
